Experimental data as given in US8691851B2, “Lanthanide metal complexes useful in treating cancer” (National University of Singapore, priority 2009, dated 2014).

Tests used:
[1] = tested on: AIF (apoptosis inducing factor); details: SHEP-1 cells, 5 μM and 10 μM, 24 hr
Description: Different concentrations (5 μM and 10 μM) of C19H24N3O5S5Pr (indicated as “Pr-MPO”) were administered into SHEP-1 cancer cells. The detection of AIF in the cytosol and nucleus fractions was determined by Western Blot analysis at 18 hr and 24 hr of treatment with C19H24N3O5S5Pr.

PTEN, RhoB, MnSOD = details: HCT-116 tumors, 100 μg or 200 μg per mouse, 21 days of treatment
Description: HCT-116 colorectal tumor cells were grafted onto nude mice. Tumor-bearing mice were then treated with solvent control or different concentrations of (100 μg, 200 μg) C19H24N3O5S5Pr. After 21 days of treatment, the mice were sacrificed, after which tumors were harvested and proteins extracted for Western Blot analysis.

With `CS(C)=O.CS(C)=O.[O-][n+]1ccccc1[S-].[O-][n+]1ccccc1[S-].[O-][n+]1ccccc1[S-].[Pr+3]` [C19H24N3O5S5Pr, praseodymium (2-mercaptopyridine N-oxide)(dimethylsulfoxide)] the AIF translocation [1] was “AIF was translocated into the nucleus” and the “PTEN, RhoB and MnSOD protein expression in tumors” value (PTEN, RhoB, MnSOD) was “regulated”.
